Experimental data taken from patent US20150366199A1, “COMPOSITIONS COMPRISING GOUGEROTIN AND AN INSECTICIDE” (priority 2013, published 2015).
Where two headings read alike, the source gives them in different places.

Assays:
[1] = tested on: green peach aphid (Myzus persicae); test: Myzus persicae - spray test (Chinese cabbage leaf-disks, Example 6); type: in vivo; details: for Efficacy in % after 1d: mortality after 1 d; for Efficacy in % after 6d: mortality after 6 d
Description: (§1) Emulsifier: alkylaryl polyglycol ether

[2] = tested on: fall armyworm larvae (Spodoptera frugiperda); test: Spodoptera frugiperda - spray test; details: for Efficacy in % after 2d: mortality after 2 d; for Efficacy in % after 6d: mortality after 6 d
Description: Solvent: 78.0 parts by weight acetone • 1.5 parts by weight dimethylformamide
To produce a suitable preparation of NRRL B-50550, 1 part by weight of NRRL B-50550 75 WP is mixed with the stated amount of solvents and is diluted with water, containing an emulsifier concentration of 1000 ppm, to the desired concentration. Further test concentrations are prepared by dilution with emulsifier containing water.
Maize (Zea mais) leaf sections are sprayed with a preparation of the active ingredient of the desired concentration. Once dry, the leaf sections are infested with fall armyworm larvae (Spodoptera frugiperda).
After the specified period of time, mortality in % is determined 100% means all caterpillars have been killed and 0% means none of the caterpillars have been killed. The mortality values determined thus are recalculated using the Colby-formula.

[3] = tested on: mustard beetle larvae (Phaedon cochleariae); test: Phaedon cochleariae - spray test; details: for Efficacy in % after 2d: mortality after 2 d; for Efficacy in % after 6d: mortality after 6 d
Description: The expected efficacy of a given combination of two compounds is calculated as follows (see Colby, S. R., “Calculating Synergistic and antagonistic Responses of Herbicide Combinations”, Weeds 15, pp. 20-22, 1967):
Solvent: 78.0 parts by weight of acetone • • 1.5 parts by weight of dimethylformamide
To produce a suitable preparation of a NRRL B-50550, 1 part by weight of NRRL B-50550 75 WP was mixed with the stated amount of solvents and was diluted with water, containing an emulsifier concentration of 1000 ppm, to the desired concentration. Further test concentrations are prepared by dilution with emulsifier containing water.
Chinese cabbage (Brassica pekinensis) leaf-disks are sprayed with a preparation of the active ingredient of the desired concentration. Once dry, the leaf disks are infested with mustard beetle larvae (Phaedon cochleariae).
After the specified period of time, mortality in % is determined 100% means all beetle larvae have been killed and 0% means none of the beetle larvae have been killed. The mortality values determined thus are recalculated using the Colby-formula.

[4] = tested on: two spotted spidermite (Tetranychus urticae); test: Tetranychus urticae - spray test, OP-resistant; type: in vivo; details: mortality after 6 d
Description: as §1

[5] = tested on: pin worm; details: parasites on animals, such as pin worm, cited from earlier work
[6] = tested on: mites; details: cited from earlier work
[7] = tested on: gram-positive, gram-negative bacteria and tubercule bacillus; details: cited from earlier work
[8] = cited from earlier work
[9] = tested on: green peach aphid (Myzus persicae); test: Myzus persicae - spray test (pepper leaves, Example 8); type: in vivo; details: 0.5 ppm

CC(c1ccc(C(F)(F)F)nc1)S(C)(=O)=NC#N (stereo not drawn) [Sulfoxaflor]
Efficacy in % after 1d ([1]; 0.64 ppm): 0%

CN/C(=N\[N+](=O)[O-])NCc1cnc(Cl)s1 [Clothianidin]
Efficacy in % after 6d ([1]; 0.32 ppm): 0%

CS/C(C)=N\OC(=O)N(C)SN(C)C(=O)O/N=C(\C)SC [Thiodicarb]
Efficacy in % after 2d ([2]; 40 ppm): 0%

Spinosad
Efficacy in % after 2d ([3]; 80 ppm): 50% | Efficacy in % after 6d ([2]; 0.64 ppm): 0%

CNC(=O)c1cc(Cl)cc(C)c1NC(=O)c1cc(Br)nn1-c1ncccc1Cl [Chlorantraniliprole]
Efficacy in % after 1d ([1]; 3.2 ppm): 0% | Efficacy in % after 6d ([4]; 16 ppm): 0%

CC1(C)C(C=C(Cl)Cl)C1C(=O)OC(C#N)c1ccc(F)c(Oc2ccccc2)c1 (stereo not drawn) [β-Cyfluthrin, beta-Cyfluthrin]
Efficacy in % after 6d ([1]; 1.6 ppm): 0% | Efficacy in % after 6d ([3]; 1.6 ppm): 0% | Efficacy in % after 6d ([2]; 1.6 ppm): 0%

Spinetoram
Efficacy in % after 2d ([2]; 0.64 ppm): 0%

Cc1c(F)c(F)c(COC(=O)[C@@H]2[C@H](/C=C(\Cl)C(F)(F)F)C2(C)C)c(F)c1F (racemic) [Tefluthrin]
Efficacy in % after 2d ([3]; 40 ppm): 0%

CNCC(=O)NC(CO)C(=O)NC1C(C(N)=O)OC(n2ccc(N)nc2=O)C(O)C1O [Gougerotin, 1-(4-Amino-2-oxo-1(2H)-pyrimidinyl)-1,4-dideoxy-4-[[N—(N-methylglycyl)-D-seryl]amino]-b-D-glucopyranuronamide]
parasiticidal activity [5]: inhibitory effect on the ovulation of pin worms | parasiticidal activity ([5]; listed as gougerotin): parasiticidal action | acaricidal (miticidal) effect [6]: acaricidal (miticidal) effect | antibacterial activity [7]: weak | water solubility [8]: water soluble

O=[N+]([O-])NC1=NCCN1Cc1ccc(Cl)nc1 [Imidacloprid]
Efficacy in % after 6d ([4]; 2 ppm): 0%

Cc1cc(F)c(-n2nc(C(F)(F)F)nc2N)cc1[S+]([O-])CC(F)(F)F (stereo not drawn) [1-{2-fluoro-4-methyl-5-[(2,2,2-trifluorethyl)sulfinyl]phenyl}-3-(trifluoromethyl)-1H-1,2,4-triazol-5-amine]
Efficacy in % after 6d ([4]; 3.2 ppm): 0%

CNC(=O)Oc1cc(C)c(SC)c(C)c1 [Methiocarb]
Efficacy in % after 6d ([1]; 2000 ppm): 0%

CNC(=O)c1cc(C#N)cc(C)c1NC(=O)c1cc(Cn2nnc(C(F)(F)F)n2)nn1-c1ncccc1Cl [1-(3-chloropyridin-2-yl)-N-[4-cyano-2-methyl-6-(methylcarbamoyl)phenyl]-3-{[5-(trifluoromethyl)-2H-tetrazol-2-yl]methyl}-1H-pyrazole-5-carboxamide]
Efficacy in % after 6d ([3]; 0.128 ppm): 0% | Efficacy in % after 2d ([3]; 0.64 ppm): 50% | Efficacy in % after 6d ([2]; 0.64 ppm): 33%

N#C/N=C1\SCCN1Cc1ccc(Cl)nc1 [Thiacloprid]
Efficacy in % after 2d ([9]; mortality after 2 d): 40% | Efficacy in % after 3d ([9]; mortality after 3 d): 20% | Efficacy in % after 7d ([9]; mortality after 7 d): 10%

CNC(=O)c1cc(C#N)cc(C)c1NC(=O)c1cc(Br)nn1-c1ncccc1Cl [Cyantraniliprole]
Efficacy in % after 6d ([1]; 0.64 ppm): 0% | Efficacy in % after 6d ([1]; 3.2 ppm): 0% | Efficacy in % after 1d ([1]; 16 ppm): 0% | Efficacy in % after 6d ([4]; 80 ppm): 0% | Efficacy in % after 6d ([3]; 0.64 ppm): 0%

N#Cc1nn(-c2c(Cl)cc(C(F)(F)F)cc2Cl)c(N)c1[S+]([O-])C(F)(F)F (stereo not drawn) [Fipronil]
Efficacy in % after 6d ([2]; 16 ppm): 0%

Cc1cc(C(F)(C(F)(F)F)C(F)(F)F)ccc1NC(=O)c1cccc(I)c1C(=O)NC(C)(C)CS(C)(=O)=O [Flubendiamide]
Efficacy in % after 2d ([2]; 3.2 ppm): 33%
